Values after ≈ are worked out from the molar mass of the structure shown.
Experiments:
MG1655(DE3) endA recA = assay: Toxicity of exogenously added alcohols on exponential growth rate; assay type: cell-based, E. coli; conditions: for reduction in growth rate: 10 mM alcohol in LB medium with 1.2% glucose
Method: The exponential growth rate was unchanged by 4-methyl-1-pentanol concentrations exceeding those observed in final titers (193±23 mg/L) for the high producing Strain M1Fj(IA)2I34. The highest 4-methyl-1-pentanol concentration (10 mM, 1022 mg/L) did lead to a reduction in growth rate of 40%. […] If higher titers of 4-methyl-1-pentanol are achieved, in situ gas stripping or simple phase separation could potentially be used to extract 4-methyl-1-pentanol from the culture medium (Lee 1994).
Duplicate 3 ml cultures in LB+1.2% glucose+alcohol were inoculated to an initial OD600 of 0.1. Cultures were contained in the same 50 ml screw-cap tubes used in production experiments. […] Growth was monitored by optical density and the growth rate was calculated from a linear regression of the natural log of the OD600 values for the 1.5, 2, and 2.5 hour post-inoculation time points.

[1] = cited from earlier work
[2] = target: T1, CarNi (Nocardia iowensis carboxylic acid reductase) (Nocardia iowensis, UniProt Q6RKB1); assay type: biochemical; conditions: for CarNi activity on aliphatic acid substrate: 13 straight and branched acids from C2-C8; for observed CarNi activity relative to activity on 4-methyl-valerate: in vitro, his-purified CarNi, 50 mM acid substrate
T1 construct: made in house; host or cells: E. coli BL21 Star (DE3) harboring pET/His-Car-RBS2-Sfp
T1 sequence (Q6RKB1 whole entry): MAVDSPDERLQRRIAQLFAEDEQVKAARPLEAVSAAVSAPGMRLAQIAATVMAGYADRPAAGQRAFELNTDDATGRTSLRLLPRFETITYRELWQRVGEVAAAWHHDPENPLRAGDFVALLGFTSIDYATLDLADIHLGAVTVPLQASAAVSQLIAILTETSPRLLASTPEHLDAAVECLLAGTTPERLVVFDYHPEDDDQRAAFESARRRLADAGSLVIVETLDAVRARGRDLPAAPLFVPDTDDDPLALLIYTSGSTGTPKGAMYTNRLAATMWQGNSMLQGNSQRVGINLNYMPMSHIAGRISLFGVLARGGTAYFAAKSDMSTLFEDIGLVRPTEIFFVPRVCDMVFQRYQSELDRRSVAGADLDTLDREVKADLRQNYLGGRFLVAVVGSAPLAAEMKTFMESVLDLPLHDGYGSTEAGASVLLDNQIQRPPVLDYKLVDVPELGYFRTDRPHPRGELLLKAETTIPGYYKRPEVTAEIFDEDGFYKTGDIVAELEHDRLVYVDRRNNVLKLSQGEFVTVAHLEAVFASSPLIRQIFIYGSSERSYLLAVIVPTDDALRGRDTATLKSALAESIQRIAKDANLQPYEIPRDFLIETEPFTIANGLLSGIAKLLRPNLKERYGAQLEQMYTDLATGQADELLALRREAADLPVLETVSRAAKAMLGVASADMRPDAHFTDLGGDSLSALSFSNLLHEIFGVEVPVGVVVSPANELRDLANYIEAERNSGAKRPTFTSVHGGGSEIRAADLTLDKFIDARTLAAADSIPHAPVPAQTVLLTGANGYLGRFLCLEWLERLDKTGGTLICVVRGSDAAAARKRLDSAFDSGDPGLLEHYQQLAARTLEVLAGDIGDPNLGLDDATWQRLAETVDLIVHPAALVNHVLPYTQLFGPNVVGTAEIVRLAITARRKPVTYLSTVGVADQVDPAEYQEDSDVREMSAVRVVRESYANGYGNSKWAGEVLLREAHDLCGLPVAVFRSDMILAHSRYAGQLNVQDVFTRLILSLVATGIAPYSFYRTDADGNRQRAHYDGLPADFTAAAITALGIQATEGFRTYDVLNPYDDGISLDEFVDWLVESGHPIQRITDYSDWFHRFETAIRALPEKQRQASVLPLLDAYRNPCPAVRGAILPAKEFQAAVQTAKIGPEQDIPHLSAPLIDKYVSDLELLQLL
Method: Strain M4 expressing car-sfp-ADH6 was fed five different acids at 10 mM initial concentration. Selectivity was determined by measuring normalized titers 5 hours post induction of gene expression. […] Initial rates were measured by monitoring NADPH consumption by measuring absorption at 340 nm.
Assays were devised to confirm activity on desired substrates in vitro and in vivo. In the first, N-terminal his-tagged CarNi was purified and assayed by UV absorption of NADPH with 13 straight and branched acids from C2-C8. […] A complementary in vivo assay was designed to examine the effectiveness of the Module 4 pairing. Butyrate, valerate. 3-methyl-valerate, 4-methyl-valerate, and hexanoate were fed to E. coli cultures expressing CarNi/ADH6Sc and conversion was monitored by sampling the culture media and liquid chromatography (LC).
Relative Activity Assay for Purified his-Car: An overnight culture of BL21 Star (DE3) (Invitrogen) harboring pET/His-Car-RBS2-Sfp was used as 10% (v/v) inoculum in 2 L of LB Broth. The culture was incubated at 30° C. and 250 rpm, and expression was induced using a final concentration of 1 mM IPTG at OD 0.6. Cells were harvested after 20 hours using centrifugation and resuspended in a buffer containing 50 mM Tris-HCl pH 8.0, 300 mM NaCl, and 10% glycerol. Cells were subsequently lysed using sonication. The supernatant was collected and applied to a column containing Ni-NTA resin (Qiagen). Affinity chromatography was performed using step-wise increasing concentrations of imidazole. Fractions containing purified His6-Car were dialyzed overnight at 4° C. into 50 mM Tris-HCl pH 7.5, 50 mM NaCl, 1 mM DTT, and 10% glycerol. Dialyzed enzyme was then flash frozen using liquid nitrogen and stored at −80° C. The activity of His-Car on various substrates was determined by changes in absorbance at 340 nm for up to 5 minutes in 96-well microplates using a plate reader (Tecan Infinite F200 Pro). Reactions were prepared as follows: 100 mM Tris-HCl pH 7.5, 10 mM MgCl2, 0.6 mM NADPH, 1 mM ATP, 224 nM His-Car, and 50 mM pH neutralized acid substrate. Changes in absorbance at 340 nm were detected using a filter. All substrates were assayed in triplicate. For KM and Vmax determinations, substrates were assayed at 5 different concentrations.

SMILES | reduction in growth rate (MG1655(DE3) endA recA) [%] | effect on exponential growth rate (MG1655(DE3) endA recA; concentrations up to 5 mM) | CarNi activity on aliphatic acid substrate [2] | observed CarNi activity relative to activity on 4-methyl-valerate [2] [%] | other results
CC(C)CCCO [4-methyl-1-pentanol] | 40 | did not inhibit |  |  | effect on exponential growth rate (MG1655(DE3) endA recA; concentrations exceeding those observed in final titers (193±23 mg/L)): unchanged; solubility in water [1]: 7400 µg/mL (≈ 72.4 mM)
CCC(C)CCC(=O)O (stereo not drawn) [4-methyl-hexanoate] |  |  | highest activity |  | 
CC(=O)O [acetate] |  |  | reduced activity |  | 
CCCC(=O)O [butyrate] |  |  |  | 56 | 
CC(C)CO [isobutanol] | 10 | did not inhibit |  |  | 
CC(C)C(=O)O [isobutyrate] |  |  | reduced activity | 25 | Km ([2]; purified His-CarNi, initial rates by NADPH consumption at 340 nm): 78 ± 9 mM

— patent US10100335B2, “Microbial production of branched medium chain alcohols, such as 4-methylpentanol” (Massachusetts Institute of Technology, priority 2013, dated 2018)
